Data: patent US20220389061A1, “IMMUNOMODULATORS” (priority 2019, published 2022)
Starred links: 1 amine or outer side, 2 acyl side, 3 side chain; linkers in the order of their positions; H or OH if unused. Positions of bridges follow the written chain, without caps; N, C: chain ends. Non-standard residues stand in square brackets, D forms with d. Residues, ends and D or L forms follow the SMILES beside them. Groups on a side chain read outwards from the residue. *: point of attachment. Trp(1-CH2COOH) = N[C@@H](Cc1cn(CC(=O)O)c2ccccc12)C(=O)O; Benzoyl(2-(4-MeOPh)) = COc1ccc(-c2ccccc2C(=O)*)cc1; NH(benzothiophen-5-yl) = c1cc2cc(N*)ccc2s1; X63 = COc1cc([N+](=O)[O-])ccc1NC(=S)*; X75 = S=C(Nc1ccc(C2CC2)c2ccccc12)*; Hyp = O=C(O)[C@@H]1C[C@@H](O)CN1; X78 = S=C(Nc1c(Cl)cc(Cl)cc1Cl)*; X84 = COc1cc(NC(=S)*)cc(OC)c1OC; X55 = COc1cc(NC(=S)*)cc(OC)c1; NMeNle = CCCC[C@H](NC)C(=O)O; X7 = S=C(Nc1ccc2cc[nH]c2c1)*; X5 = S=C(Nc1cccc2ccccc12)*; X52 = c1ccc2c(N*)c[nH]c2c1; X74 = Cc1cc(C)c(N*)c(C)c1; NMeA = CN[C@@H](C)C(=O)O; Dab = NCC[C@H](N)C(=O)O; Dap = NC[C@H](N)C(=O)O; X15 = Cc1ccc(Cl)cc1N*; CO = O=C([*:1])[*:2]

Biological target: T1, PD-1/PD-L1 (Homo sapiens, UniProt Q9NZQ7)
T1 construct: TVMV protease site linker (C); made in house; host or cells: HEK293T cells
Experiment: PD-1/PD-L1 Homogenous Time-Resolved Fluorescence (HTRF) binding assay
Conditions: PD-L1-His 10 nM pre-incubated with inhibitor, PD-1-Ig 20 nM; read-out: HTRF IC50
Summary of the method: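 Compounds preincubated 15 min with PD-L1-His (10 nM final), then PD-1-Ig (20 nM final) added for 15 min in dPBS with 0.1% BSA, 0.05% Tween-20. Detection by Eu-cryptate anti-Ig (1 nM) and APC anti-His (20 nM) HTRF.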

T1 sequence (Q9NZQ7 18-239): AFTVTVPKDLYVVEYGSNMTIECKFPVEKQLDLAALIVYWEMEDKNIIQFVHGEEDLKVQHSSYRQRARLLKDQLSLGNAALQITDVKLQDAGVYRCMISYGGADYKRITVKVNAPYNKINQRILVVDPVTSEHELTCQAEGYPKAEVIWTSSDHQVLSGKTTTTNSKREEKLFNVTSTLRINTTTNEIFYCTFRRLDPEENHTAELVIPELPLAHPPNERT

Row | SMILES | IC50
1 | CCCC[C@H]1C(=O)N(C)[C@@H](CCCC)C(=O)N[C@@H](CC(C)C)C(=O)N[C@H](C(=O)NCC(N)=O)CSCC(=O)N[C@@H](Cc2ccc(O)cc2)C(=O)N(C)[C@@H](C)C(=O)N[C@@H](CC(N)=O)C(=O)N2CCC[C@H]2C(=O)N[C@@H](CNC(=O)c2ccccc2-c2ccc(OC)cc2)C(=O)N[C@@H](CC(C)C)C(=O)N2C[C@H](O)C[C@H]2C(=O)N[C@@H](Cc2c[nH]c3ccccc23)C(=O)N[C@@H](CCN)C(=O)N[C@@H](Cc2cn(CC(=O)O)c3ccccc23)C(=O)N1C [Example 1061] ({CH2CO}-Y[NMeA]NP[Dap](Benzoyl(2-(4-MeOPh)))L[Hyp]W[Dab][Trp(1-CH2COOH)][NMeNle][NMeNle]LCG-NH2; thioether N-14) | 4 nM
2 | CCCC[C@H]1C(=O)N(C)[C@@H](CCCC)C(=O)N[C@@H](CC(C)C)C(=O)N[C@H](C(=O)NCC(N)=O)CSCC(=O)N[C@@H](Cc2ccc(O)cc2)C(=O)N(C)[C@@H](C)C(=O)N[C@@H](CC(N)=O)C(=O)N2CCC[C@H]2C(=O)N[C@@H](CNC(=S)Nc2ccc3cc[nH]c3c2)C(=O)N[C@@H](CC(C)C)C(=O)N2C[C@H](O)C[C@H]2C(=O)N[C@@H](Cc2c[nH]c3ccccc23)C(=O)N[C@@H](CCNC(=S)Nc2ccc3cc[nH]c3c2)C(=O)N[C@@H](Cc2cn(CC(=O)O)c3ccccc23)C(=O)N1C [Example 3068] ({CH2CO}-Y[NMeA]NP[Dap](X7)L[Hyp]W[Dab](X7)[Trp(1-CH2COOH)][NMeNle][NMeNle]LCG-NH2; thioether N-14) | 2 nM
3 | CCCC[C@H]1C(=O)N(C)[C@@H](CCCC)C(=O)N[C@@H](CC(C)C)C(=O)N[C@H](C(=O)NCC(N)=O)CSCC(=O)N[C@@H](Cc2ccc(O)cc2)C(=O)N(C)[C@@H](C)C(=O)N[C@@H](CC(N)=O)C(=O)N2CCC[C@H]2C(=O)N[C@@H](CNC(=O)Nc2c[nH]c3ccccc23)C(=O)N[C@@H](CC(C)C)C(=O)N2C[C@H](O)C[C@H]2C(=O)N[C@@H](Cc2c[nH]c3ccccc23)C(=O)N[C@@H](CCNC(=O)Nc2c[nH]c3ccccc23)C(=O)N[C@@H](Cc2cn(CC(=O)O)c3ccccc23)C(=O)N1C [Example 3060] ({CH2CO}-Y[NMeA]NP[Dap]([CO-X52])L[Hyp]W[Dab]([CO-X52])[Trp(1-CH2COOH)][NMeNle][NMeNle]LCG-NH2; thioether N-14) | 2.7 nM
4 | CCCC[C@H]1C(=O)N(C)[C@@H](CCCC)C(=O)N[C@@H](CC(C)C)C(=O)N[C@H](C(=O)NCC(N)=O)CSCC(=O)N[C@@H](Cc2ccc(O)cc2)C(=O)N(C)[C@@H](C)C(=O)N[C@@H](CC(N)=O)C(=O)N2CCC[C@H]2C(=O)N[C@@H](CNC(=S)Nc2cc(OC)c(OC)c(OC)c2)C(=O)N[C@@H](CC(C)C)C(=O)N2C[C@H](O)C[C@H]2C(=O)N[C@@H](Cc2c[nH]c3ccccc23)C(=O)N[C@@H](CCNC(=S)Nc2cc(OC)c(OC)c(OC)c2)C(=O)N[C@@H](Cc2cn(CC(=O)O)c3ccccc23)C(=O)N1C [Example 1083] ({CH2CO}-Y[NMeA]NP[Dap](X84)L[Hyp]W[Dab](X84)[Trp(1-CH2COOH)][NMeNle][NMeNle]LCG-NH2; thioether N-14) | 0.6 nM
5 | CCCC[C@H]1C(=O)N(C)[C@@H](CCCC)C(=O)N[C@@H](CC(C)C)C(=O)N[C@H](C(=O)NCC(N)=O)CSCC(=O)N[C@@H](Cc2ccc(O)cc2)C(=O)N(C)[C@@H](C)C(=O)N[C@@H](CC(N)=O)C(=O)N2CCC[C@H]2C(=O)N[C@@H](CNC(=S)Nc2cc(OC)cc(OC)c2)C(=O)N[C@@H](CC(C)C)C(=O)N2C[C@H](O)C[C@H]2C(=O)N[C@@H](Cc2c[nH]c3ccccc23)C(=O)N[C@@H](CCNC(=S)Nc2cc(OC)cc(OC)c2)C(=O)N[C@@H](Cc2cn(CC(=O)O)c3ccccc23)C(=O)N1C [Example 1086] ({CH2CO}-Y[NMeA]NP[Dap](X55)L[Hyp]W[Dab](X55)[Trp(1-CH2COOH)][NMeNle][NMeNle]LCG-NH2; thioether N-14) | 4.2 nM
6 | CCCC[C@H]1C(=O)N(C)[C@@H](CCCC)C(=O)N[C@@H](CC(C)C)C(=O)N[C@H](C(=O)NCC(N)=O)CSCC(=O)N[C@@H](Cc2ccc(O)cc2)C(=O)N(C)[C@@H](C)C(=O)N[C@@H](CC(N)=O)C(=O)N2CCC[C@H]2C(=O)N[C@@H](CNC(=O)Nc2c(C)cc(C)cc2C)C(=O)N[C@@H](CC(C)C)C(=O)N2C[C@H](O)C[C@H]2C(=O)N[C@@H](Cc2c[nH]c3ccccc23)C(=O)N[C@@H](CCN)C(=O)N[C@@H](Cc2cn(CC(=O)O)c3ccccc23)C(=O)N1C [Example 1066] ({CH2CO}-Y[NMeA]NP[Dap]([CO-X74])L[Hyp]W[Dab][Trp(1-CH2COOH)][NMeNle][NMeNle]LCG-NH2; thioether N-14) | 2.9 nM

More lines, now with the values ahead:

Row | IC50 | SMILES
7 | 1.5 nM | CCCC[C@H]1C(=O)N(C)[C@@H](CCCC)C(=O)N[C@@H](CC(C)C)C(=O)N[C@H](C(=O)NCC(N)=O)CSCC(=O)N[C@@H](Cc2ccc(O)cc2)C(=O)N(C)[C@@H](C)C(=O)N[C@@H](CC(N)=O)C(=O)N2CCC[C@H]2C(=O)N[C@@H](CNC(=S)Nc2c(Cl)cc(Cl)cc2Cl)C(=O)N[C@@H](CC(C)C)C(=O)N2C[C@H](O)C[C@H]2C(=O)N[C@@H](Cc2c[nH]c3ccccc23)C(=O)N[C@@H](CCN)C(=O)N[C@@H](Cc2cn(CC(=O)O)c3ccccc23)C(=O)N1C [Example 1109] ({CH2CO}-Y[NMeA]NP[Dap](X78)L[Hyp]W[Dab][Trp(1-CH2COOH)][NMeNle][NMeNle]LCG-NH2; thioether N-14)
8 | 2.8 nM | CCCC[C@H]1C(=O)N(C)[C@@H](CCCC)C(=O)N[C@@H](CC(C)C)C(=O)N[C@H](C(=O)NCC(N)=O)CSCC(=O)N[C@@H](Cc2ccc(O)cc2)C(=O)N(C)[C@@H](C)C(=O)N[C@@H](CC(N)=O)C(=O)N2CCC[C@H]2C(=O)N[C@@H](CNC(=S)Nc2cccc3ccccc23)C(=O)N[C@@H](CC(C)C)C(=O)N2C[C@H](O)C[C@H]2C(=O)N[C@@H](Cc2c[nH]c3ccccc23)C(=O)N[C@@H](CCNC(=S)Nc2cccc3ccccc23)C(=O)N[C@@H](Cc2cn(CC(=O)O)c3ccccc23)C(=O)N1C [Example 3006] ({CH2CO}-Y[NMeA]NP[Dap](X5)L[Hyp]W[Dab](X5)[Trp(1-CH2COOH)][NMeNle][NMeNle]LCG-NH2; thioether N-14)
9 | 3.3 nM | CCCC[C@H]1C(=O)N(C)[C@@H](CCCC)C(=O)N[C@@H](CC(C)C)C(=O)N[C@H](C(=O)NCC(N)=O)CSCC(=O)N[C@@H](Cc2ccc(O)cc2)C(=O)N(C)[C@@H](C)C(=O)N[C@@H](CC(N)=O)C(=O)N2CCC[C@H]2C(=O)N[C@@H](CNC(=O)Nc2ccc3sccc3c2)C(=O)N[C@@H](CC(C)C)C(=O)N2C[C@H](O)C[C@H]2C(=O)N[C@@H](Cc2c[nH]c3ccccc23)C(=O)N[C@@H](CCN)C(=O)N[C@@H](Cc2cn(CC(=O)O)c3ccccc23)C(=O)N1C [Example 3026] ({CH2CO}-Y[NMeA]NP[Dap]([CO-NH(benzothiophen-5-yl)])L[Hyp]W[Dab][Trp(1-CH2COOH)][NMeNle][NMeNle]LCG-NH2; thioether N-14)
10 | 4.7 nM | CCCC[C@H]1C(=O)N(C)[C@@H](CCCC)C(=O)N[C@@H](CC(C)C)C(=O)N[C@H](C(=O)NCC(N)=O)CSCC(=O)N[C@@H](Cc2ccc(O)cc2)C(=O)N(C)[C@@H](C)C(=O)N[C@@H](CC(N)=O)C(=O)N2CCC[C@H]2C(=O)N[C@@H](CN)C(=O)N[C@@H](CC(C)C)C(=O)N2C[C@H](O)C[C@H]2C(=O)N[C@@H](Cc2c[nH]c3ccccc23)C(=O)N[C@@H](CCNC(=O)Nc2cc(Cl)ccc2C)C(=O)N[C@@H](Cc2cn(CC(=O)O)c3ccccc23)C(=O)N1C [Example 1117] ({CH2CO}-Y[NMeA]NP[Dap]L[Hyp]W[Dab]([CO-X15])[Trp(1-CH2COOH)][NMeNle][NMeNle]LCG-NH2; thioether N-14)
11 | 9.98 nM | CCCC[C@H]1C(=O)N(C)[C@@H](CCCC)C(=O)N[C@@H](CC(C)C)C(=O)N[C@H](C(=O)NCC(N)=O)CSCC(=O)N[C@@H](Cc2ccc(O)cc2)C(=O)N(C)[C@@H](C)C(=O)N[C@@H](CC(N)=O)C(=O)N2CCC[C@H]2C(=O)N[C@@H](CNC(=O)Nc2cc(Cl)ccc2C)C(=O)N[C@@H](CC(C)C)C(=O)N2C[C@H](O)C[C@H]2C(=O)N[C@@H](Cc2c[nH]c3ccccc23)C(=O)N[C@@H](CCN)C(=O)N[C@@H](Cc2cn(CC(=O)O)c3ccccc23)C(=O)N1C [Example 1106] ({CH2CO}-Y[NMeA]NP[Dap]([CO-X15])L[Hyp]W[Dab][Trp(1-CH2COOH)][NMeNle][NMeNle]LCG-NH2; thioether N-14)
12 | 1.2 nM | CCCC[C@H]1C(=O)N(C)[C@@H](CCCC)C(=O)N[C@@H](CC(C)C)C(=O)N[C@H](C(=O)NCC(N)=O)CSCC(=O)N[C@@H](Cc2ccc(O)cc2)C(=O)N(C)[C@@H](C)C(=O)N[C@@H](CC(N)=O)C(=O)N2CCC[C@H]2C(=O)N[C@@H](CNC(=S)Nc2ccc([N+](=O)[O-])cc2OC)C(=O)N[C@@H](CC(C)C)C(=O)N2C[C@H](O)C[C@H]2C(=O)N[C@@H](Cc2c[nH]c3ccccc23)C(=O)N[C@@H](CCN)C(=O)N[C@@H](Cc2cn(CC(=O)O)c3ccccc23)C(=O)N1C [Example 1112] ({CH2CO}-Y[NMeA]NP[Dap](X63)L[Hyp]W[Dab][Trp(1-CH2COOH)][NMeNle][NMeNle]LCG-NH2; thioether N-14)
13 | 13 nM | CCCC[C@H]1C(=O)N(C)[C@@H](CCCC)C(=O)N[C@@H](CC(C)C)C(=O)N[C@H](C(=O)NCC(N)=O)CSCC(=O)N[C@@H](Cc2ccc(O)cc2)C(=O)N(C)[C@@H](C)C(=O)N[C@@H](CC(N)=O)C(=O)N2CCC[C@H]2C(=O)N[C@@H](CNC(=S)Nc2ccc(C3CC3)c3ccccc23)C(=O)N[C@@H](CC(C)C)C(=O)N2C[C@H](O)C[C@H]2C(=O)N[C@@H](Cc2c[nH]c3ccccc23)C(=O)N[C@@H](CCNC(=S)Nc2ccc(C3CC3)c3ccccc23)C(=O)N[C@@H](Cc2cn(CC(=O)O)c3ccccc23)C(=O)N1C [Example 3058] ({CH2CO}-Y[NMeA]NP[Dap](X75)L[Hyp]W[Dab](X75)[Trp(1-CH2COOH)][NMeNle][NMeNle]LCG-NH2; thioether N-14)
